Results published in DBAASP.
≈ marks a conversion by molar mass, not a printed value. Where “and” joins values, the source holds several entries; their conditions need not be identical. Equal values may be shown once. Blank lines part the entries; values can stand above or below the compound they belong to.

Tests used:
Experiment in all cases: ≥ marks a high value that may be exact or a test limit, other limits are often not marked, values filed in µg/mL are converted to µM
[1] = test system: Mycobacterium tuberculosis H37Rv
[2] = test system: Candida albicans ATCC 24433
[3] = test system: Candida parapsilosis ATCC 22019
[4] = test system: Listeria monocytogenes LO28
[5] = test system: Cronobacter sakazakii DPC 6440
Bacillus cereus AS1.126 = test system: Bacillus cereus AS1.126
[6] = test system: Enterococcus faecalis CGMCC 1.595
[7] = test system: Enterococcus faecium CGMCC 1.2334
[8] = test system: Pseudomonas aeruginosa CGMCC 1.860
[9] = test system: Staphylococcus aureus AS1.72
[10] = test system: Lactococcus lactis AS1.1690
Escherichia coli AS1.349 = test system: Escherichia coli AS1.349
Candida albicans = test system: Candida albicans
[11] = test system: Staphylococcus aureus ATCC 25923
Staphylococcus aureus MR = test system: Staphylococcus aureus MR
[12] = test system: Escherichia coli ATCC 8739
Escherichia coli = test system: Escherichia coli
[13] = test system: Pseudomonas aeruginosa PA14
[14] = test system: Pseudomonas aeruginosa ATCC 27853
Staphylococcus aureus = test system: Staphylococcus aureus
[15] = test system: Escherichia coli ATCC 25922
[16] = test system: Pseudomonas aeruginosa PAO1
Klebsiella pneumoniae = test system: Klebsiella pneumoniae
[17] = test system: Acinetobacter baumannii CCARM 12035
[18] = test system: Staphylococcus aureus CCARM 3126
[19] = test system: Salmonella typhimurium KCTC 1926
[20] = test system: Pseudomonas aeruginosa CCARM 2002
[21] = test system: Escherichia coli CCARM 1229
[22] = test system: Salmonella typhimurium CCARM 8007
[23] = test system: Staphylococcus aureus KCTC 1621
[24] = test system: Acinetobacter baumannii KCTC 2508
[25] = test system: Escherichia coli KCTC 1682
[26] = test system: Bacillus subtilis KCTC 3068
[27] = test system: Pseudomonas aeruginosa KCTC 2004
[28] = test system: Staphylococcus epidermidis KCTC 1917
[29] = test system: Staphylococcus epidermidis ATCC 12228

- MIC [1]: ≥ 68.7 µM
Compound: CC[C@H](C)[C@H](NC(=O)[C@H](Cc1c[nH]c2ccccc12)NC(=O)[C@H](CCCN=C(N)N)NC(=O)[C@H](CCCCN)NC(=O)[C@H](C)NC(=O)[C@H](CC(C)C)NC(=O)[C@H](CCCN=C(N)N)NC(=O)[C@H](CC(=O)O)NC(=O)[C@@H](NC(=O)[C@H](CC(N)=O)NC(=O)[C@H](CCC(=O)O)NC(=O)[C@H](CCC(=O)O)NC(=O)[C@H](CO)NC(=O)[C@@H](NC(=O)[C@H](CC(N)=O)NC(=O)[C@H](CCCN=C(N)N)NC(=O)[C@H](C)N)C(C)C)C(C)C)C(=O)N[C@@H](CCCCN)C(=O)O [ARNVSEENVDRLAKRWIK]

- MIC [2]: ≥ 269 µM
- MIC [3]: ≥ 269 µM
Compound: CC[C@H](C)[C@H](NC(=O)[C@H](CC(C)C)NC(=O)[C@H](CCC(=O)O)NC(=O)[C@H](CO)NC(=O)[C@H](CCCN=C(N)N)NC(=O)[C@@H](N)CO)C(=O)N[C@H](C(=O)N[C@@H](Cc1cnc[nH]1)C(=O)N[C@@H](CCC(N)=O)C(=O)N[C@@H](CCCN=C(N)N)C(=O)N[C@@H](CC(C)C)C(=O)N[C@@H](Cc1ccccc1)C(N)=O)C(C)C [SRSELIVHQRLF]

- MIC [4]: ≥ 78.1 µM
- MIC [5]: ≥ 78.1 µM
Compound: CC[C@H](C)[C@H](NC(=O)[C@H](C)N)C(=O)N[C@@H](CCC(N)=O)C(=O)N1CCC[C@H]1C(=O)N[C@@H](CCCCN)C(=O)N[C@H](C(=O)N[C@@H](CCCCN)C(=O)N[C@H](C(=O)N[C@H](C(=O)N1CCC[C@H]1C(=O)N[C@@H](Cc1ccc(O)cc1)C(=O)N[C@H](C(=O)N[C@@H](CCCN=C(N)N)C(=O)N[C@@H](Cc1ccc(O)cc1)C(=O)N[C@@H](CC(C)C)C(=O)O)C(C)C)[C@@H](C)CC)C(C)C)[C@@H](C)O [AIQPKTKVIPYVRYL]

- MIC (Bacillus cereus AS1.126): ≥ 100 µM
- MIC [6]: ≥ 100 µM
- MIC [7]: ≥ 100 µM
- MIC [8]: ≥ 100 µM
- MIC [9]: ≥ 100 µM
- MIC [10]: ≥ 100 µM
- MIC (Escherichia coli AS1.349): ≥ 100 µM
Compound: CC(C)[C@H](NC(=O)[C@H](CCCCN)NC(=O)[C@@H](N)CO)C(=O)N[C@@H](Cc1c[nH]c2ccccc12)C(=O)N[C@@H](CCCN=C(N)N)C(=O)N[C@@H](Cc1cnc[nH]1)C(=O)N[C@@H](Cc1c[nH]c2ccccc12)C(=O)O [SKVWRHW]

- MIC (Candida albicans): 2.41 µM (≈ 12.5 µg/mL)
- MIC [11]: 0.385 µM (≈ 2 µg/mL)
- MIC [2]: 2.41 µM (≈ 12.5 µg/mL)
- MIC (Staphylococcus aureus MR): 4.82 µM (≈ 25 µg/mL)
Compound: CC[C@H](C)[C@@H]1NC(=O)[C@H](CCC(N)=O)NC(=O)[C@H](CCC(=O)O)NC(=O)[C@H](CCC(=O)O)NC(=O)[C@H](CCCCN)NC(=O)CNC(=O)[C@H](CC(C)C)NC(=O)[C@@H]2CSSC[C@@H](C(=O)N[C@@H](CCCN=C(N)N)C(=O)N[C@@H](CCCCN)C(=O)N[C@@H](CCCCN)C(=O)N[C@@H](CCCCN)C(=O)O)NC(=O)[C@@H]3CSSC[C@H](NC(=O)[C@H](Cc4ccccc4)NC(=O)[C@H](Cc4ccccc4)NC(=O)[C@H](CCCCN)NC(=O)[C@H](CCCN=C(N)N)NC(=O)[C@H](CC(C)C)NC(=O)[C@@H](NC(=O)[C@H](CCCCN)NC(=O)[C@@H]4CCCN4C(=O)[C@H](CC(C)C)NC(=O)[C@@H](N)Cc4ccccc4)[C@@H](C)O)C(=O)N[C@@H](CCCN=C(N)N)C(=O)N[C@@H]([C@@H](C)CC)C(=O)N[C@@H](CCCN=C(N)N)C(=O)NCC(=O)NCC(=O)N[C@@H](CCCN=C(N)N)C(=O)N[C@@H](CSSC[C@H](NC(=O)[C@H](CCCN=C(N)N)NC(=O)CNC1=O)C(=O)N[C@@H](CO)C(=O)N[C@@H](CC(N)=O)C(=O)N[C@@H](CO)C(=O)NCC(=O)N[C@@H](CCCN=C(N)N)C(=O)N[C@@H](CCCCN)C(=O)N3)C(=O)N[C@@H](C)C(=O)N[C@@H](C(C)C)C(=O)N[C@@H](CC(C)C)C(=O)N[C@@H](CC(N)=O)C(=O)N2 [FLPKTLRKFFCRIRGGRCAVLNCLGKEEQIGRCSNSGRKCCRKKK]

- MIC [11]: 64 µM and 55.7 µM
- MIC [12]: 8 µM and 6.97 µM
- MIC (Escherichia coli): 8 µM (≈ 18.4 µg/mL)
- MIC [13]: 8 µM (≈ 18.4 µg/mL)
- MIC [14]: 16 µM (≈ 36.8 µg/mL)
- MIC (Staphylococcus aureus): > 64 µM
- MIC [15]: 8 µM (≈ 18.4 µg/mL)
- MIC [16]: 8 µM (≈ 18.4 µg/mL)
- MIC (Klebsiella pneumoniae): 16 µM (≈ 36.8 µg/mL)
Compound: CC[C@H](C)[C@H](NC(=O)[C@H](CCCCN)NC(=O)[C@H](CC(C)C)NC(=O)[C@H](CCCN=C(N)N)NC(=O)[C@H](CC(C)C)NC(=O)[C@H](CCCCN)NC(=O)[C@H](CCCCN)NC(=O)[C@H](CC(C)C)NC(=O)[C@H](CC(C)C)NC(=O)[C@H](CCCCN)NC(=O)[C@H](CCCCN)NC(=O)[C@H](CC(N)=O)NC(=O)[C@H](CCCN=C(N)N)NC(=O)[C@H](C)NC(=O)[C@H](CCSC)NC(=O)[C@@H]1CCCN1)C(=O)N[C@@H](C)C(=O)N[C@@H](Cc1ccccc1)C(=O)N[C@@H](CCCCN)C(=O)O [PMARNKKLLKKLRLKIAFK]

- MIC [17]: 16 µM (≈ 24.5 µg/mL)
- MIC [18]: ≥ 64 µM
- MIC [19]: ≥ 64 µM
- MIC [20]: 16 µM (≈ 24.5 µg/mL)
- MIC [21]: ≥ 64 µM
- MIC [22]: ≥ 32 µM
- MIC [23]: 16 µM (≈ 24.5 µg/mL)
- MIC [24]: ≥ 64 µM
- MIC [25]: 16 µM (≈ 24.5 µg/mL)
- MIC [26]: ≥ 64 µM
- MIC [27]: 8 µM (≈ 12.2 µg/mL)
- MIC [28]: ≥ 64 µM
Compound: CC[C@H](C)[C@H](NC(=O)[C@H](CCCCN)NC(=O)[C@H](CCCCN)NC(=O)[C@H](Cc1ccccc1)NC(=O)[C@@H](NC(=O)[C@H](CCCCN)NC(=O)[C@H](Cc1c[nH]c2ccccc12)NC(=O)[C@@H](N)CCCN=C(N)N)[C@@H](C)CC)C(=O)N[C@@H](CCC(=O)O)C(=O)N[C@@H](CCCCN)C(=O)N[C@H](C(=O)NCC(N)=O)C(C)C [RWKIFKKIEKVG]

- MIC [4]: 2.44 µM (≈ 4.58 µg/mL)
- MIC [5]: ≥ 39.1 µM
Compound: CC[C@H](C)[C@H](NC(=O)[C@@H](NC(=O)[C@H](CCCCN)NC(=O)[C@@H](NC(=O)[C@H](CCCCN)NC(=O)[C@@H]1CCCN1C(=O)[C@H](CCC(N)=O)NC(=O)[C@@H](NC(=O)[C@@H](N)Cc1c[nH]c2ccccc12)[C@@H](C)CC)[C@@H](C)O)C(C)C)C(=O)N[C@@H](C)C(=O)N[C@@H](Cc1ccc(O)cc1)C(=O)N[C@H](C(=O)N[C@@H](CCCN=C(N)N)C(=O)N[C@@H](Cc1ccc(O)cc1)C(=O)N[C@@H](CC(C)C)C(=O)O)C(C)C [WIQPKTKVIAYVRYL]

- MIC [29]: > 100 µM
- MIC [2]: ≥ 100 µM
- MIC [15]: > 100 µM
Compound: CC[C@H](C)[C@H](NC(=O)CNC(=O)[C@@H](NC(=O)[C@H](C)NC(=O)[C@@H](NC(=O)[C@H](CCCCN)NC(=O)[C@@H]1CCCN1C(=O)[C@@H](NC(=O)[C@H](CCSC)NC(=O)[C@H](CO)NC(=O)[C@H](Cc1ccccc1)NC(=O)[C@@H](N)Cc1ccccc1)[C@@H](C)CC)[C@@H](C)CC)[C@@H](C)O)C(=O)N[C@@H](C)C(=O)N[C@@H](CO)C(=O)N[C@@H](CC(C)C)C(=O)N[C@H](C(=O)N[C@@H](CCCCN)C(=O)N[C@@H](CC(N)=O)C(=O)N[C@@H](CC(C)C)C(=O)O)C(C)C [FFSMIPKIATGIASLVKNL]
